ChEMBL document CHEMBL5614438, “CETZOLE Analogs as Potent Ferroptosis Inducers and Their Target Identification Using Covalent/Affinity Probes” (J Med Chem, 2024)
Activity calls are given as the source filed them. The rule behind the calls is not given here.

What was measured:
NCI-H522 [1] = assay: Cytotoxicity against human NCI-H522 cells assessed as reduction in cell viability at 1 uM incubated for 3 days by methylene blue staining based spectrophotometric analysis; format: functional; conditions: time 3.0 day
HT-1080 [2] = assay: Cytotoxicity against human HT-1080 cells assessed as reduction in cell viability incubated for 3 days by methylene blue staining based spectrophotometric analysis; format: functional; conditions: HT-1080, 72 h, time 3 day
NCI-H522 [3] = assay: Induction of cell death in human NCI-H522 cells at 10 uM incubated for 4 to 5 hrs by live cell imaging analysis relative to control; format: functional; conditions: time 4-5 hrs
NCI-H522 [4] = assay: Cytotoxicity against human NCI-H522 cells overexpressing GFP-tagged RV assessed as reduction in cell viability incubated for 3 days by methylene blue staining based spectrophotometric analysis; format: functional; conditions: NCI-H522, 72 h, time 3 day
NCI-H522 [5] = assay: Cytotoxicity against human NCI-H522 cells assessed as reduction in cell viability incubated for 3 days by methylene blue staining based spectrophotometric analysis; format: functional; conditions: NCI-H522, 72 h, time 3 day
NCI-H522 [6] = assay: Cytotoxicity against human NCI-H522 cells overexpressing GFP-tagged SLC7A11 assessed as reduction in cell viability incubated for 3 days by methylene blue staining based spectrophotometric analysis; format: functional; conditions: NCI-H522, 72 h, time 3 day
HT-1080 [7] = assay: Cytotoxicity against human HT-1080 cells assessed as reduction in cell viability at 1 uM incubated for 3 days by methylene blue staining based spectrophotometric analysis; format: functional; conditions: time 3.0 day
NCI-H522 [8] = assay: Induction of ferroptosis in human NCI-H522 cells assessed as increase in intracellular lipid peroxidation accumulation at 4.08 uM incubated for 6 hrs by C11 BODIPY 581/591 staining based flow cytometry; format: functional, cell-based
MEF [9] = assay: Cytotoxicity against mouse MEF cells assessed as reduction in cell viability at 1 uM incubated for 3 days by methylene blue staining based spectrophotometric analysis; format: toxicity; conditions: 72 h, time 3 day
NCI-H522 [10] = assay: Induction of ferroptosis in human NCI-H522 cells assessed as cell viability incubated for 3 days in presence of liproxstatin-1 by methylene blue staining based spectrophotometric analysis relative to control; format: functional; conditions: time 3 day
WI-38 [11] = assay: Cytotoxicity against human WI-38 cells assessed as reduction in cell viability at 1 uM incubated for 3 days by methylene blue staining based spectrophotometric analysis; format: toxicity; conditions: wi-38, 72 h, time 3 day
MDA-MB-231 = assay: Cytotoxicity against human MDA-MB-231 cells assessed as reduction in cell viability incubated for 3 days by methylene blue staining based spectrophotometric analysis; format: functional; conditions: MDA-MB-231, 72 h, time 3 day
U2OS = assay: Cytotoxicity against human U2OS cells assessed as reduction in cell viability incubated for 3 days by methylene blue staining based spectrophotometric analysis; format: functional; conditions: 72 h, time 3 day
NCI-H522 [12] = assay: Induction of cell death in human NCI-H522 cells at 10 uM incubated for 4 to 5 hrs by live cell imaging analysis; format: functional, cell-based; conditions: time 4-5 hrs
NCI-H522 [13] = assay: Induction of ferroptosis in human NCI-H522 cells assessed as reduction in cell viability at 7.68 uM incubated for 3 days in presence of liproxstatin-1 by methylene blue staining based spectrophotometric analysis; format: functional; conditions: time 3.0 day
[14] = biological target: T1, Peroxiredoxin-4 (Homo sapiens) (UniProt Q13162); assay: Inhibition of PRDX4 (unknown origin)
T1 sequence (whole entry): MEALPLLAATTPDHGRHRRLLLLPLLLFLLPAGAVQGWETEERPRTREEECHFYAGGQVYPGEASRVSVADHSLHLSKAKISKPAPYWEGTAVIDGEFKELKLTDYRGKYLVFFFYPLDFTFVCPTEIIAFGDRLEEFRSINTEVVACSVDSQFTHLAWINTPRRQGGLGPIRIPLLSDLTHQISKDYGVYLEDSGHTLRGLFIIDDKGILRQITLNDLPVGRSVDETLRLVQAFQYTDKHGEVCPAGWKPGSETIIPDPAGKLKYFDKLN

[15] = biological target: Glucose-6-phosphate 1-dehydrogenase (Homo sapiens) (UniProt P11413); assay: Inhibition of G6PD in human HCT-116 cells using G6P as substrate at 100 uM incubated for 20 mins followed by G6P and […]; format: cell-based
NCI-H522 [16] = assay: Induction of ferroptosis in human NCI-H522 cells assessed as increase in intracellular lipid peroxidation accumulation at 7.68 uM incubated for 6 hrs by C11 BODIPY 581/591 staining based flow cytometry; format: functional, cell-based
[17] = biological target: Phospholipid hydroperoxide glutathione peroxidase GPX4 (Homo sapiens) (UniProt P36969); assay: Inhibition of recombinant GPX4 (unknown origin) at 100 uM incubated for 60 mins followed by NADPH addition
[18] = biological target: Glucose-6-phosphate 1-dehydrogenase (Homo sapiens) (UniProt P11413); assay: Inhibition of G6PD in human HCT-116 cells using G6P as substrate assessed as reduction in enzyme activity by measuring absorbance at 100 uM incubated for 20 mins followed by G6P and […]; format: cell-based
NCI-H522 [19] = assay: Induction of ferroptosis in human NCI-H522 cells assessed as increase in intracellular lipid peroxidation accumulation at 0.36 uM incubated for 6 hrs by C11 BODIPY 581/591 staining based flow cytometry; format: functional, cell-based
NCI-H522 [20] = assay: Induction of ferroptosis in human NCI-H522 cells assessed as cell death at 0.38 uM incubated for 3 days by methylene blue staining based spectrophotometric analysis relative to control; format: functional; conditions: time 3 day
NCI-H522 [21] = assay: Induction of ferroptosis in human NCI-H522 cells assessed as reduction in cell viability at 13.68 uM incubated for 3 days in presence of liproxstatin-1 by methylene blue staining based spectrophotometric analysis; format: functional; conditions: time 3.0 day
[22] = biological target: Glucose-6-phosphate 1-dehydrogenase (Homo sapiens) (UniProt P11413); assay: Inhibition of G6PD in human HCT-116 cells using G6P as substrate at 25 uM incubated for 20 mins followed by G6P and […]; format: cell-based
NCI-H522 [23] = assay: Induction of ferroptosis in human NCI-H522 cells assessed as increase in intracellular lipid peroxidation accumulation at 0.39 uM incubated for 6 hrs by C11 BODIPY 581/591 staining based flow cytometry; format: functional, cell-based
NCI-H522 [24] = assay: Induction of ferroptosis in human NCI-H522 cells assessed as cell death at 0.39 uM incubated for 3 days by methylene blue staining based spectrophotometric analysis relative to control; format: functional; conditions: time 3 day
MEF [25] = assay: Cytotoxicity against mouse MEF cells assessed as reduction in cell viability incubated for 3 days by methylene blue staining based spectrophotometric analysis; format: toxicity; conditions: 72 h, time 3 day
NCI-H522 [26] = assay: Induction of ferroptosis in human NCI-H522 cells assessed as reduction in cell viability at 3.3 uM incubated for 3 days in presence of liproxstatin-1 by methylene blue staining based spectrophotometric analysis; format: functional; conditions: time 3.0 day
NCI-H522 [27] = assay: Induction of cell death in human NCI-H522 cells at 10 uM incubated for 3 to 4 hrs by live cell imaging analysis relative to control; format: functional; conditions: time 3-4 hrs
WI-38 [28] = assay: Cytotoxicity against human WI-38 cells assessed as reduction in cell viability incubated for 3 days by methylene blue staining based spectrophotometric analysis; format: toxicity; conditions: wi-38, 72 h, time 3 day

Sequence of Glucose-6-phosphate 1-dehydrogenase (Homo sapiens) (P11413 whole entry): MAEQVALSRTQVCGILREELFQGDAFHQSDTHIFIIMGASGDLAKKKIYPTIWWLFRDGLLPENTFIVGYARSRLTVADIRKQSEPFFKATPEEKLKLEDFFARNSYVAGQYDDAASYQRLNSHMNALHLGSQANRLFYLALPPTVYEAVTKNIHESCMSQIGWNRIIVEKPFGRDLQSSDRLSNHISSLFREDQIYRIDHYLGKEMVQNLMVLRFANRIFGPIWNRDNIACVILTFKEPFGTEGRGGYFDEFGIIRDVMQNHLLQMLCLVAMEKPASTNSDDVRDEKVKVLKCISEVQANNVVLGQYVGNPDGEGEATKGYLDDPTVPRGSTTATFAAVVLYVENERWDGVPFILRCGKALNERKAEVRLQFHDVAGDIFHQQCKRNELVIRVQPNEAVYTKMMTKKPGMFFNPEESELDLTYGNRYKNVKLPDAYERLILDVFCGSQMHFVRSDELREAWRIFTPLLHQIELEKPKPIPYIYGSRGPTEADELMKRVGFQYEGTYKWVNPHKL
Sequence of Phospholipid hydroperoxide glutathione peroxidase GPX4 (Homo sapiens) (P36969 whole entry): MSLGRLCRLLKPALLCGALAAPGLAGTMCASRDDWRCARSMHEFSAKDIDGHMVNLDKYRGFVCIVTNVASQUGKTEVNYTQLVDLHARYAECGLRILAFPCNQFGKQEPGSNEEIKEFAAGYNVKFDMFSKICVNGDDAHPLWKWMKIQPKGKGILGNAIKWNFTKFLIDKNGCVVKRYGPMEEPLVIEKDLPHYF

SMILES | CC50 (HT-1080 [2]) [µM] | CC50 (NCI-H522 [4]) [µM] | CC50 (NCI-H522 [5]) [µM] | CC50 (NCI-H522 [6]) [µM] | CC50 (MDA-MB-231) [µM] | CC50 (U2OS) [µM] | also measured
C#Cc1nc(C2=C(C)/C(=N/OCc3ccccc3)CC2)cs1 | 0.81 | 2.54 | 1.36 | 2.41 | 4.17 | 19.3 | Activity (NCI-H522 [1]): Active; Activity (NCI-H522 [3]): 50%; Activity (HT-1080 [7]): Active; Activity (NCI-H522 [8]): Active; Activity (MEF [9]): Non-Toxic; Activity (NCI-H522 [10]): 85%; Activity (WI-38 [11]): Non-Toxic; Activity (NCI-H522 [12]): Active
CC1=C(c2csc(Br)n2)C/C(=N\OCC(=O)Nc2ccc3oc(=O)c(C)cc3c2)C1=O | > 20 | – | > 20 | – | > 20 | – | –
C#CCCC(=O)Nc1ccc(C(=O)c2ccc(NC(=O)CO/N=C3\CC(c4csc(Br)n4)=C(C)C3O)cc2)cc1 (stereo not drawn) | > 20 | – | > 20 | – | > 20 | – | –
C#Cc1nc(C2=C(C)C(=O)/C(=N/OCC(=O)Nc3ccc4oc(=O)c(C)cc4c3)C2)cs1 | > 20 | – | > 20 | – | > 20 | – | –
C#Cc1nc(C2=C(C)C(OC(=O)CCCCCCC)/C(=N/OC(=O)CCCCCCC)C2)cs1 (stereo not drawn) | > 20 | > 20 | > 20 | > 20 | 19.1 | > 20 | –
C#Cc1nc(C2=C(C)C(=O)/C(=N/O)C2)cs1 | 5.29 | > 20 | > 20 | > 20 | 8.05 | > 20 | –
C#Cc1nc(C2=C(C)C(OC(=O)C(c3ccccc3)c3ccccc3)/C(=N\OC(=O)C(c3ccccc3)c3ccccc3)C2)cs1 (stereo not drawn) | 1.85 | 5.02 | 3.5 | 9.34 | 14.9 | 9.1 | –
C#Cc1nc(C2=C(C)C(O)CC2)cs1 (racemic) | 3.07 | – | – | 10.3 | 6.28 | 14.9 | Activity (NCI-H522 [1]): inactive; Activity (NCI-H522 [3]): 50%; Activity (NCI-H522 [13]): inactive; inhibition [14]: inactive; Activity (HT-1080 [7]): inactive; inhibition [15]: Active; Activity (NCI-H522 [16]): Active; Activity (MEF [9]): Non-Toxic; Activity (WI-38 [11]): Non-Toxic; Activity (NCI-H522 [12]): Active
CC1=C(c2csc(Br)n2)CCC1O (stereo not drawn) | > 20 | – | > 20 | – | > 20 | – | –
C#Cc1nc(C2=C(C)C(OC(=O)c3ccccc3)/C(=N\OC(=O)c3ccccc3)C2)cs1 (stereo not drawn) | 0.08 | 0.58 | 0.55 | 0.84 | 0.54 | 0.22 | –
C#CCO/N=C1\CC(c2csc(Br)n2)=C(C)C1O (stereo not drawn) | > 20 | – | > 20 | – | > 20 | – | –
CCN(CC)c1ccc2cc(C(=O)NC3CCC(c4csc(Br)n4)=C3C)c(=O)oc2c1 (stereo not drawn) | > 20 | – | > 20 | – | > 20 | – | –
C#Cc1nc(C2=C(C)C(OC(=O)CC)/C(=N/OC(=O)CC)C2)cs1 (stereo not drawn) | 0.15 | 0.59 | 0.12 | 2.06 | 0.18 | 13.4 | Activity (NCI-H522 [1]): Active; inhibition [14]: inactive; inhibition [17]: Active; Activity [18]: 0.13; Activity (HT-1080 [7]): Active; inhibition [15]: Active; Activity (MEF [9]): Toxic; Activity (NCI-H522 [19]): Active; Activity (WI-38 [11]): Toxic; Activity (NCI-H522 [20]): ~60%
C#Cc1nc(C2=C(C)C(NC(=O)c3cc4ccc(N(CC)CC)cc4oc3=O)CC2)cs1 (stereo not drawn) | 4.58 | – | 4.56 | – | 1.2 | – | Activity (NCI-H522 [21]): inactive
COc1ccc(N(C(=O)CCl)C(C(=O)NCCc2ccccc2)c2cccs2)cc1Cl (stereo not drawn) | – | – | – | – | – | – | inhibition [14]: inactive; inhibition [22]: Active
C#Cc1nc(C2=C(C)C(OC(=O)CCC)/C(=N/OC(=O)CCC)C2)cs1 (stereo not drawn) | 0.19 | 0.28 | 0.13 | 1.93 | 0.83 | 5.85 | Activity (NCI-H522 [23]): Active; Activity (NCI-H522 [1]): Active; Activity (NCI-H522 [24]): ~60%; Activity (HT-1080 [7]): Active; Activity (MEF [9]): Toxic; Activity (WI-38 [11]): Toxic
C#Cc1nc(C2=C(C)C(=O)NCC2)cs1 | 4.89 | 10.9 | 5.4 | 20.2 | 9.32 | 7.81 | –
COC(=O)c1ccc([C@H]2c3[nH]c4ccccc4c3C[C@H](C(=O)OC)N2C(=O)CCl)cc1 | 0.14 | 0.31 | 1.1 | 2.84 | 0.22 | 2.46 | CC50 (MEF [25]): 0.04 µM; Activity (NCI-H522 [1]): Active; Activity (HT-1080 [7]): Active; Activity (NCI-H522 [26]): inactive; Activity (MEF [9]): Toxic; Activity (WI-38 [11]): Toxic; Activity (NCI-H522 [27]): 50%; CC50 (WI-38 [28]): 0.05 µM
C#Cc1nc(C2=C(C)C(=O)/C(=N/OC(C)=O)C2)cs1 | > 20 | > 20 | 11 | > 20 | 18.5 | > 20 | –
C#Cc1nc(C2=C(C)C(OC(=O)C(C)(C)C)/C(=N\OC(=O)C(C)(C)C)C2)cs1 (stereo not drawn) | 0.033 | 0.472 | 0.411 | 0.387 | 0.44 | 3.39 | –
C#Cc1nc(C2=C(C)C(O)/C(=N/O)C2)cs1 (stereo not drawn) | 5.77 | 5.55 | 4.68 | > 20 | 6.57 | > 20 | –
C#Cc1nc(C2=C(C)C(O)/C(=N\OCc3ccccc3)C2)cs1 (stereo not drawn) | 0.93 | 3.02 | 1.18 | 2.17 | 13.4 | > 20 | –
